The source made the active and inactive calls. The rule behind the calls is not given here. Where a SMILES comes first, the peptide text is derived from it.

This is an account of results in ChEMBL document CHEMBL4417633, “Inhibitory polypeptides specific to WNT inhibitors” (2017).

Assay [1] addresses T1, Dickkopf-related protein 1 (Homo sapiens) (UniProt O94907).
T1 sequence (whole entry): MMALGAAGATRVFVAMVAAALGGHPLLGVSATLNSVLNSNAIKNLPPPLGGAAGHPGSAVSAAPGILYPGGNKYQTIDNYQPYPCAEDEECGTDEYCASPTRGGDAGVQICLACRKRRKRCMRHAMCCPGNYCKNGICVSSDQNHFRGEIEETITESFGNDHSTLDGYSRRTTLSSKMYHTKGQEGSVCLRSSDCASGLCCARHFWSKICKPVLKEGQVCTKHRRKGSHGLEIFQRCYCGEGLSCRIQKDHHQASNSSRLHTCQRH
In words: Inhibition of biotin-labeled human recombinant DKK1 assessed as reduction in DKK1 interaction with LRP-6/Fc incubated overnight by chemiluminescence based Alpha-screen assay.

The target in assay [2] is T2, Dickkopf-related protein 1 (Homo sapiens, UniProt O94907).
T2 sequence (O94907 whole entry): T1 sequence (whole entry)
In words: Inhibition of human DKK1 in MC3T3E1/TetON-Wnt1/STF-Luc#5 cells assessed as DKK1 neutralizing activity by Wnt1-induced TCF/LEF luciferase reporter gene assay. On the technique in general: A reporter such as luciferase makes a cellular process visible.

In assay [3] the target is T3, Dickkopf WNT-signaling pathway inhibitor 1 (Rattus norvegicus) (UniProt A6I0Z0).
T3 sequence (whole entry): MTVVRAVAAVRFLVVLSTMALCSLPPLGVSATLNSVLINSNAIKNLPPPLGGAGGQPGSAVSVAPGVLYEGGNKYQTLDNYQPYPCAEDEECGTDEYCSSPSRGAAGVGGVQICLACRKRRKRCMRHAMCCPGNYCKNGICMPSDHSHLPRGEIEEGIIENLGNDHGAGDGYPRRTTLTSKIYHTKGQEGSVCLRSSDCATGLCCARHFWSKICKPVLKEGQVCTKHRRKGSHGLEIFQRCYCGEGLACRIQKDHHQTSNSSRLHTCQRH
As to the kind of experiment: Inhibition of biotin-labeled rat recombinant DKK1 assessed as reduction in DKK1 interaction with LRP-6/Fc incubated overnight by chemiluminescence based Alpha-screen assay. In general terms: In Alpha technology, singlet oxygen from a donor bead excites a nearby acceptor bead.

For the compound `CC[C@H](C)[C@H](NC(=O)[C@H](CS)NC(=O)[C@H](CC(=O)O)NC(=O)[C@@H]1CCCN1C(=O)[C@H](Cc1ccccc1)NC(=O)CNC(=O)[C@H](CC(=O)O)NC(=O)[C@H](CS)NC(=O)[C@H](CCCNC(=N)N)NC(=O)[C@H](Cc1c[nH]c2ccccc12)NC(=O)[C@H](CCC(=O)O)NC(=O)[C@H](CCSC)NC(=O)[C@@H]1CCCN1C(=O)[C@H](Cc1ccc(O)cc1)NC(=O)[C@H](CS)NC(=O)[C@H](Cc1cnc[nH]1)NC(=O)[C@@H]1CCCN1C(=O)[C@H](Cc1cnc[nH]1)NC(=O)[C@H](CC(N)=O)NC(=O)[C@H](CCCNC(=N)N)NC(=O)[C@H](CS)NC(=O)[C@H](CCCCN)NC(=O)[C@H](Cc1ccccc1)NC(=O)[C@H](Cc1ccc(O)cc1)NC(=O)[C@H](CO)NC(=O)[C@H](C)NC(=O)[C@@H]1CCCN1C(=O)[C@@H](N)CS)C(=O)N[C@@H](CC(=O)O)C(=O)NCC(=O)N[C@@H](CO)C(=O)N[C@@H](CC(=O)O)C(=O)N[C@@H](CCC(=O)O)C(=O)N[C@H](C(=O)N[C@@H](C)C(=O)N[C@@H](CS)C(=O)NCC(=O)NCC(=O)NCC(=O)NCC(=O)O)[C@H](C)O`, the inhibition result in assay [1] and in assay [3] was “Active” in each case. Moreover, the IC50 (in general, the concentration at which inhibition is half-maximal) in assay [2] lay in the range of 0.8 to 3 nM.
Regarding `CC[C@H](C)[C@H](NC(=O)[C@H](CS)NC(=O)[C@H](CC(=O)O)NC(=O)[C@@H]1CCCN1C(=O)[C@H](Cc1ccccc1)NC(=O)CNC(=O)[C@H](CC(=O)O)NC(=O)[C@H](CS)NC(=O)[C@H](CCCNC(=N)N)NC(=O)[C@H](Cc1c[nH]c2ccccc12)NC(=O)[C@H](CCC(=O)O)NC(=O)[C@H](CCSC)NC(=O)[C@@H]1CCCN1C(=O)[C@H](Cc1ccc(O)cc1)NC(=O)[C@H](CS)NC(=O)[C@H](Cc1cnc[nH]1)NC(=O)[C@H](CCCCN)NC(=O)[C@H](Cc1ccc(O)cc1)NC(=O)[C@H](CCC(=O)O)NC(=O)[C@H](CCCNC(=N)N)NC(=O)[C@H](CS)NC(=O)[C@H](CCC(N)=O)NC(=O)[C@H](Cc1ccccc1)NC(=O)[C@H](Cc1ccc(O)cc1)NC(=O)[C@H](CO)NC(=O)[C@H](CCC(=O)O)NC(=O)[C@@H]1CCCN1C(=O)[C@@H](N)CS)C(=O)N[C@@H](CC(=O)O)C(=O)N[C@@H](CO)C(=O)N[C@@H](CO)C(=O)N[C@@H](CC(=O)O)C(=O)N[C@@H](CCC(=O)O)C(=O)N[C@H](C(=O)N[C@@H](CC(=O)O)C(=O)N[C@@H](CS)C(=O)NCC(=O)NCC(=O)NCC(=O)NCC(=O)O)[C@@H](C)O` (H-CPESYFQCREYKHCYPMEWRCDGFPDCIDSSDETDCGGGG-OH), the inhibition entry in assay [1] and in assay [3] was “Active” in each case. In assay [2], the IC50 fell in the range of 0.8 to 3 nM.
Regarding `CSCC[C@H](NC(=O)[C@@H]1CCCN1C(=O)[C@H](Cc1ccc(O)cc1)NC(=O)[C@H](CS)NC(=O)[C@H](Cc1cnc[nH]1)NC(=O)[C@@H]1CCCN1C(=O)[C@H](Cc1cnc[nH]1)NC(=O)[C@H](CC(N)=O)NC(=O)[C@H](CCCNC(=N)N)NC(=O)[C@H](CS)NC(=O)[C@H](CCCNC(=N)N)NC(=O)[C@H](Cc1ccccc1)NC(=O)[C@H](Cc1ccc(O)cc1)NC(=O)[C@H](CO)NC(=O)[C@H](C)NC(=O)[C@@H]1CCCN1C(=O)[C@@H](N)CS)C(=O)N[C@@H](CCC(=O)O)C(=O)N[C@@H](Cc1c[nH]c2ccccc12)C(=O)N[C@@H](CCCNC(=N)N)C(=O)N[C@@H](CS)C(=O)N[C@@H](CC(=O)O)C(=O)NCC(=O)N[C@@H](Cc1ccccc1)C(=O)N[C@@H](CCC(=O)O)C(=O)N[C@@H](CC(=O)O)C(=O)N[C@@H](CS)C(=O)N[C@H](C(=O)N[C@@H](CC(=O)O)C(=O)NCC(=O)N[C@@H](CO)C(=O)N[C@@H](CC(=O)O)C(=O)N[C@@H](CCC(=O)O)C(=O)N[C@@H](CC(C)C)C(=O)N[C@@H](CC(=O)O)C(=O)N[C@@H](CS)C(=O)NCC(=O)NCC(=O)NCC(=O)NCC(=O)O)C(C)C` (H-CPASYFRCRNHPHCYPMEWRCDGFEDCVDGSDELDCGGGG-OH), the inhibition entry in assay [1] and in assay [3] was “Active” throughout. In addition, the concentration for half-maximal inhibition (IC50) in assay [2] lay within 0.8 to 3 nM.
